Test results: patent publication US20100113776A1, “PYRAZOLE DERIVATIVE” (TAISHO PHARMACEUTICAL CO.,LTD., priority 2006, published 2010)

Key:
[1] = biological target: T1, human H3 receptor (Homo sapiens, UniProt Q9Y5N1); test: H3 receptor binding test; conditions: membrane preparation of human H3 receptor-expressing CHO-K1 cells; 2 nM R(−)-α-methyl[3H]histamine; room temperature, 1 hour
T1 construct: purchased Euroscreen ES-392-M; host or cells: CHO-K1 cells (recombinant expression)
Protocol: A membrane preparation of human H3 receptor-expressing CHO—K1 cells (Euroscreen, ES-392-M, 15 μg protein/200 μl), R(−)-α-methyl[^3H]histamine (Amersham, TRK-1017, specific activity: 1.74 TBq/mmol, 2 nM) and a test drug were reacted at room temperature for 1 hour. After completion of the reaction, the reaction mixture was subjected to suction filtration through a 0.3% polyethyleneimine-treated glass filter (GF/C). The glass filter was washed five times with 50 mM Tris-HCl washing solution (pH 7.4) containing 0.1% BSA and 5 mM magnesium chloride. After washing, the glass filter was dried and a scintillator was added thereto, followed by measurement of radioactivity on the filter using a liquid scintillation counter.
Binding of R(−)-α-methyl[^3H]histamine in the presence of 10 μM R(−)-α-methylhistamine was defined as non-specific binding, and the difference between total binding and non-specific binding of R(−)-α-methyl[^3H]histamine was defined as specific binding of R(−)-α-methyl[^3H]histamine. A fixed concentration (2 nM) of R(−)-α-methyl[^3H]histamine was reacted under the above conditions with each test drug at various concentrations to obtain an inhibition curve. The inhibition curve was used to determine the concentration (IC50) of each test drug required for 50% inhibition of R(−)-α-methyl[^3H]histamine binding.

[2] = biological target: T1, human H3 receptor; test: [35S]GTP-γ-S binding test; format: biochemical; conditions: human H3 receptor membrane preparation; 100 μM R(−)-α-methylhistamine; 0.2 nM [35S]GTP-γ-S; 30 μM GDP
Protocol: A human H3 receptor membrane preparation (7.5 μg protein/100 μl), 30 μM GDP, 100 μM R(−)-α-methylhistamine and a test compound were reacted at room temperature for 30 minutes. After completion of the reaction, [^35S]GTP-γ-S (0.2 nM) was added and reacted for an additional 30 minutes. After completion of the reaction, the reaction mixture was subjected to suction filtration through a glass filter (GF/C). The glass filter was washed three times with 20 mM HEPES washing solution (pH 7.4) containing 100 mM sodium chloride and 1 mM magnesium chloride. After washing, the glass filter was dried and a scintillator was added thereto, followed by measurement of radioactivity on the filter using a liquid scintillation counter.
Binding of [^35S]GTP-γ-S in the absence of R(−)-α-methylhistamine was defined as non-specific binding, and the difference between total binding in the presence of R(−)-α-methylhistamine and non-specific binding was defined as specific binding of [^35S]GTP-γ-S. Fixed concentrations of [^35S]GTP-γ-S (0.2 nM) and R(−)-α-methylhistamine (100 μM) were reacted under the above conditions with each test drug at various concentrations to obtain an inhibition curve. The inhibition curve was used to determine the concentration (IC50) of each test drug required for 50% inhibition of [^35S]GTP-γ-S binding.

[3] = tested on: male SD rats; test: Social recognition test; format: in vivo, rat; conditions: compared to the vehicle group
Protocol: In this test, male SD rats were used. Adult rats were placed in a Perspex test box and acclimated for 30 minutes. Then, young rats were placed in the same test box, and the time taken for the adult rats to show exploratory behavior to the young rats during 5 minutes was measured (first exploratory behavior time). The exploratory behavior measured included sniffing, grooming, and closely following. After a 5 minute exploration, the adult and young rats were removed from the test box and returned to their respective home cages. After 90 minutes, the adult rats were placed again in the same test box as used in the first exploratory behavior test and acclimated for 30 minutes. Then, the same young rats as used in the first test were placed in the test box, and the time taken for the adult rats to show exploratory behavior to the young rats during 5 minutes was measured (second exploratory behavior time). The ratio of the second exploratory behavior time to the first exploratory behavior time (second/first exploratory behavior time ratio) was taken as an indicator of social recognition. The compound of the present invention was orally administered to the adult rats immediately after their first exploratory behavior. The compound of the present invention was dissolved in 0.03 N hydrochloric acid and tested at 0.1, 0.3 and 1 mg/kg.

T1 sequence (Q9Y5N1 whole entry): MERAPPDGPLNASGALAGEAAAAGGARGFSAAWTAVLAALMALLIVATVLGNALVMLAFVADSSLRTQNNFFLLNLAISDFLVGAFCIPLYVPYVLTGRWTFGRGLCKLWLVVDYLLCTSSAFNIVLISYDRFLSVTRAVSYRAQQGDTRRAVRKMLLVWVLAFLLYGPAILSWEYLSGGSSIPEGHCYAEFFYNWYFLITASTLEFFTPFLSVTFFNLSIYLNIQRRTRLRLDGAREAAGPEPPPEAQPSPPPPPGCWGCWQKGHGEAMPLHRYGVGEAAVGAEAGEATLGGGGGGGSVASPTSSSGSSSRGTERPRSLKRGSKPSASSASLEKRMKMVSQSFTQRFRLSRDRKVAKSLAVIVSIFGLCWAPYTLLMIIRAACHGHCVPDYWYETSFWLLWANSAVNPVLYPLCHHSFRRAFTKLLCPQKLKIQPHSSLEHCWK

Structure (SMILES) | IC50 [1] | IC50 [2] | second/first exploratory behavior time ratio ([3]; 0.3 mg/kg orally to adult male SD rats immediately after first exploratory behavior) | second/first exploratory behavior time ratio ([3]; 1 mg/kg orally to adult male SD rats immediately after first exploratory behavior)
CC1CCCC1N1CCC(Oc2ccc(-n3cc(C(=O)N4CCCC4)cn3)cc2)CC1 (stereo not shown) [Compound No. 5, 1-(2-methylcyclopentyl)-4-{4-[4-(pyrrolidin-1-ylcarbonyl)-1H-pyrazol-1-yl]phenoxy}piperidine] | 8.1 nM |  |  | 
O=C(NC1CCCC1)c1cnn(-c2ccc(OC3CCN(C4CCC4)CC3)cc2)c1 [compound 16, 1-{4-[(1-cyclobutylpiperidin-4-yl)oxy]phenyl}-N-cyclopentyl-1H-pyrazole-4-carboxamide] | 5.7 nM | 1.1 nM |  | 
O=C(NCC(F)(F)F)c1cnn(-c2ccc(OC3CCN(C4CCC4)CC3)cc2)c1 [compound 18, 1-{4-[(1-cyclobutylpiperidin-4-yl)oxy]phenyl}-N-(2,2,2-trifluoroethyl)-1H-pyrazole-4-carboxamide] | 14.7 nM |  |  | 
O=C(c1cnn(-c2ccc(OC3CCN(C4CCC4)CC3)cc2)c1)N1CCCC1 [Compound No. 14, 1-cyclobutyl-4-{4-[4-(pyrrolidin-1-ylcarbonyl)-1-pyrazol-1-yl]phenoxy}piperidine] | 7.1 nM | 1.6 nM |  | 

Continued, in another order:

IC50 [1] | IC50 [2] | Structure (SMILES) | second/first exploratory behavior time ratio ([3]; 0.3 mg/kg orally to adult male SD rats immediately after first exploratory behavior) | second/first exploratory behavior time ratio ([3]; 1 mg/kg orally to adult male SD rats immediately after first exploratory behavior)
6.2 nM |  | O=C(NCC1CCCCC1)c1cnn(-c2ccc(OC3CCN(C4CCC4)CC3)cc2)c1 [compound 19, 1-{4-[(1-cyclobutylpiperidin-4-yl)oxy]phenyl}-N-(cyclohexylmethyl)-1H-pyrazole-4-carboxamide] |  | 
7.1 nM | 1.2 nM | O=C(c1ccn(-c2ccc(OC3CCN(C4CCC4)CC3)cc2)n1)N1CCCC1 [Compound No. 68, {1-[4-(1-cyclobutylpiperidin-4-yloxy)phenyl]-1H-pyrazol-3-yl}pyrrolidin-1-yl-methanone] |  | 
10.4 nM | 2.6 nM | O=C(c1cnn(-c2ccc(OC3CCN(C4CCCC4)CC3)cc2)c1)N1CCCC1 [Compound No. 1, 1-cyclopentyl-4-{4-[4-(pyrrolidin-1-ylcarbonyl)-1H-pyrazol-1-yl]phenoxy}piperidine] | significantly reduced | significantly reduced
